{
  "source": "patent EP1232240B1",
  "about": "“DETERGENT COMPOSITIONS” (UNILEVER N.V., priority 1999, dated 2001)",
  "origin": "cited, not measured here",
  "conditions": "grams of solid to form a saturated solution in 100 grams of water at 20°C",
  "data": [
    {"smiles": "NC(N)=O", "note": "[Urea]", "values": [
      {"measurement": "Water Solubility (g/100g)", "result": ">100", "unit": "g/100g"}
    ]}
  ]
}
